One block for each compound: values may come before it. Active and inactive are the calls of the source.
How the values were obtained:
[1] = molecular target: DNA (cytosine-5)-methyltransferase 1 (Homo sapiens, UniProt P26358); test: inhibition of DNA methylation by DNMT1 – biochemical, fluorescent molecular beacon, confirmation (AID 602386); type: functional
[2] = molecular target: 26S proteasome non-ATPase regulatory subunit 14 (Homo sapiens, UniProt O00487); test: inhibition of proteasome subunit RPN11 – biochemical, fluorescence polarization, uHTS hits, confirmation (AID 602368); type: functional
26S proteasome non-ATPase regulatory subunit 14, sequence (O00487 whole entry): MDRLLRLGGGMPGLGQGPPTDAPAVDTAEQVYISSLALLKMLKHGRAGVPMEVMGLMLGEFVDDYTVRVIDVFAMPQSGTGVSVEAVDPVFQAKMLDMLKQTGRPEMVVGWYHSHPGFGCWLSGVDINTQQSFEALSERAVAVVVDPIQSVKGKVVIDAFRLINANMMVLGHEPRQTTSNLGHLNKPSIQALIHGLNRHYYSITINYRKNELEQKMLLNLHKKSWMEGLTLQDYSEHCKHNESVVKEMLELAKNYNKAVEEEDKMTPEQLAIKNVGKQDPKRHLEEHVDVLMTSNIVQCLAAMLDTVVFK

[3] = molecular target: 72 kDa type IV collagenase (Homo sapiens, UniProt P08253); test: Dose Response validation of uHTS RPN11 inhibitor hits using a MMP-2 Fluorescence assay.; type: functional
72 kDa type IV collagenase, sequence (P08253 whole entry): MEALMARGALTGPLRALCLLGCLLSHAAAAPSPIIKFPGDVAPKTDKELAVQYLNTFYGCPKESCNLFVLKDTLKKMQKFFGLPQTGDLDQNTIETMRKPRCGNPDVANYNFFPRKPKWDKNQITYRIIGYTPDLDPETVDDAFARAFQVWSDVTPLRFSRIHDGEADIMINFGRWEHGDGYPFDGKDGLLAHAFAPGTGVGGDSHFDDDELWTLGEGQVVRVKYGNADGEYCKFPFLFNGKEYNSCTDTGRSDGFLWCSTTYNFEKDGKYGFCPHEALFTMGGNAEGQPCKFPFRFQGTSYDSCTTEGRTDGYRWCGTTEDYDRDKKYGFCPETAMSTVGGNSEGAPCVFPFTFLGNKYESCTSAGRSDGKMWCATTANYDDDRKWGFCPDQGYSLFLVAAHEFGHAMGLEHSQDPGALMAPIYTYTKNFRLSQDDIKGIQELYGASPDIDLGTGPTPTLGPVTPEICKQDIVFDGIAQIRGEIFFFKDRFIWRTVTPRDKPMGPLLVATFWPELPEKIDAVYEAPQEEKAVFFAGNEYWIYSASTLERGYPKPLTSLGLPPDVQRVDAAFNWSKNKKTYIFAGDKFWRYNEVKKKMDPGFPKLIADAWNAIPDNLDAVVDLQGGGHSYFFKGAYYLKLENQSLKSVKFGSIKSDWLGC

Prothrombin = Prothrombin (Bos taurus, UniProt P00735); test: thrombin protease inhibitors – biochemical, fluorescence polarization, uHTS hits, dose response (AID 602369); type: functional
[4] = molecular target: T1, Rac GTPase-activating protein 1 (Homo sapiens, UniProt Q9H0H5); test: blockers of MgcRacGAP-driven Rac1 GTP hydrolysis – biochemical, ADP Hunter fluorescence, primary and confirmatory, confirmation (AID 624330); type: functional
T1 sequence (Q9H0H5 whole entry): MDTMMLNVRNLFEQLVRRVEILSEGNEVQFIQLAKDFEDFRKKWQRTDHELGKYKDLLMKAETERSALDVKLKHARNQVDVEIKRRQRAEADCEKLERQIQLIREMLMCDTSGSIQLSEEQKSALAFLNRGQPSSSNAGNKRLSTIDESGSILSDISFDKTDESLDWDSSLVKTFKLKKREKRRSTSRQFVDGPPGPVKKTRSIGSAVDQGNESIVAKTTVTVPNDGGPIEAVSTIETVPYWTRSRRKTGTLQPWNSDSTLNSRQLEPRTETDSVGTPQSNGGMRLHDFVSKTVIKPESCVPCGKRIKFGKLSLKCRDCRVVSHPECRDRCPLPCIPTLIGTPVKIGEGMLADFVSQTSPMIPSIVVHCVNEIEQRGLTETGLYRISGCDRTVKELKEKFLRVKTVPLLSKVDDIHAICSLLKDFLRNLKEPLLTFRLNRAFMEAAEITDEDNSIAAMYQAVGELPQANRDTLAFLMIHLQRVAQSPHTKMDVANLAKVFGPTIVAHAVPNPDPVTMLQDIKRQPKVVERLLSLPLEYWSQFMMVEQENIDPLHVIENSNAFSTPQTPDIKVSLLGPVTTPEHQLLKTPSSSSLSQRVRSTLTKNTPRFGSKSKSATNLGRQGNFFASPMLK

[5] = molecular target: T2, Histone-lysine N-methyltransferase NSD2 (Homo sapiens, UniProt O96028); type: biochemical
T2 sequence (O96028 whole entry): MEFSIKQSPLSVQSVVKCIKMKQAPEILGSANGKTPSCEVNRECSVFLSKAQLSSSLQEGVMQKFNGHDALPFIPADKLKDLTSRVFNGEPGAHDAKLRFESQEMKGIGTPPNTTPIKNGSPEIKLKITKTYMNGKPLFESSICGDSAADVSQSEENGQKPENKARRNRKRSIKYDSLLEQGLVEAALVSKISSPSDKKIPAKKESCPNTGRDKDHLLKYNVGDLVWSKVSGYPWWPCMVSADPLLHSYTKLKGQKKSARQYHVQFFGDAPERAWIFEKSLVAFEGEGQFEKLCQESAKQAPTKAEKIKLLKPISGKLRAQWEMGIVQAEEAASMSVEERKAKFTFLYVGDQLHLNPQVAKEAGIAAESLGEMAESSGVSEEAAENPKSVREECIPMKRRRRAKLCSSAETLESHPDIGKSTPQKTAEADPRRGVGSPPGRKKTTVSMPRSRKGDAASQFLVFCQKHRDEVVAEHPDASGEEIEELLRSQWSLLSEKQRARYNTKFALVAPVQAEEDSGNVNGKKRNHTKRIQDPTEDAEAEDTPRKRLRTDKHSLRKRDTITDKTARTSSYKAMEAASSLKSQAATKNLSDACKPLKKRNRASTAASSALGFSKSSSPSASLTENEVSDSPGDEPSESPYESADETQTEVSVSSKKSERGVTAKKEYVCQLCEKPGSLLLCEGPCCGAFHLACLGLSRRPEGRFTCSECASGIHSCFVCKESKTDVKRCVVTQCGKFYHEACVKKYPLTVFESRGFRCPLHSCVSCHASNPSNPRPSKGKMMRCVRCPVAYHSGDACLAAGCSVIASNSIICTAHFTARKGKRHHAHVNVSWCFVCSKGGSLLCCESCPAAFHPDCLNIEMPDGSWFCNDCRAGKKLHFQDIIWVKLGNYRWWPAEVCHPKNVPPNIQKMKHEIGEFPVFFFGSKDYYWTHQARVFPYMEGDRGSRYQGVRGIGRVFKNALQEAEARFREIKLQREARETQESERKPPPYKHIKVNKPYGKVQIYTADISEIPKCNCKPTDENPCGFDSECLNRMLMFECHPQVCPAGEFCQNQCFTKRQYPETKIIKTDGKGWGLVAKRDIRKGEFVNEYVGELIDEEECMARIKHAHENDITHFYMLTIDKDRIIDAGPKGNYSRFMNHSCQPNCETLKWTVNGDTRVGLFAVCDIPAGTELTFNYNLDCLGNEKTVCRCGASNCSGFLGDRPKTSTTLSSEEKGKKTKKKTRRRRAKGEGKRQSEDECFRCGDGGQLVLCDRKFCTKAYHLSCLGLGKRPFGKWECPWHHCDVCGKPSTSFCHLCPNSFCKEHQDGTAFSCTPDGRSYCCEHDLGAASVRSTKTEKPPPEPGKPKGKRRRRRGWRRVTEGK

[6] = molecular target: T3, Low molecular weight phosphotyrosine protein phosphatase (Homo sapiens, UniProt P24666); type: functional; details: read-out: IC50_Mean
T3 sequence (P24666 whole entry): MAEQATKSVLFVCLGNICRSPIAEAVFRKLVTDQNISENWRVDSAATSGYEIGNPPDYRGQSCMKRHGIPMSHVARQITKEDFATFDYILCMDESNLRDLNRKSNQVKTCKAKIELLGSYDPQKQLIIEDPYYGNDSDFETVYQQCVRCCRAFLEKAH

[7] = molecular target: T3, Low molecular weight phosphotyrosine protein phosphatase; type: functional; details: read-out: IC50_Mean; remark: listed apart in the source
[8] = molecular target: Nuclear receptor subfamily 5 group A member 2 (Homo sapiens, UniProt O00482); type: functional, cell-based;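 further: HEK293T cells transfected with LRH-1 and a StAR promoter luciferase reporter; potency for inhibitors that lower LRH-1 driven reporter light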
Nuclear receptor subfamily 5 group A member 2, sequence (O00482 whole entry): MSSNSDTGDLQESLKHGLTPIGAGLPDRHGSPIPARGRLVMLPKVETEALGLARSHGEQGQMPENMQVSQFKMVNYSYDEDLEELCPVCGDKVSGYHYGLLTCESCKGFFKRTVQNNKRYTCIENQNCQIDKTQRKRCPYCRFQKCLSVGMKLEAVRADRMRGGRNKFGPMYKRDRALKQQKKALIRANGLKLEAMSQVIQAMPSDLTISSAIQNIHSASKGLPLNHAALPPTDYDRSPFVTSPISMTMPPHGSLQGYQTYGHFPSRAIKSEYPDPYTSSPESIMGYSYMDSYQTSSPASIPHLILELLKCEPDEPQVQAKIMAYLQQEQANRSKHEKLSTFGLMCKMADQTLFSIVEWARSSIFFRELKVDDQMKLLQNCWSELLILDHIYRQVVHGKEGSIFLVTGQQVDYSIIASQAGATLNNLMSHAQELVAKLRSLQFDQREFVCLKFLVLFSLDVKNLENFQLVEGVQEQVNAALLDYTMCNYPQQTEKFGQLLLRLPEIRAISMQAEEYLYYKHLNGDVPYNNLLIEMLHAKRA

Steroidogenic factor 1 = Steroidogenic factor 1 (Homo sapiens, UniProt Q13285); test: Counterscreen for inverse agonists of the liver receptor homolog-1 (LRH-1; NR5A2): Luminescence-based cell-based high throughput dose response assay to identify inverse agonists of the Steroidogenic Factor 1 Nuclear Receptor (SF1; NR5A1).; type: functional
Steroidogenic factor 1, sequence (Q13285 whole entry): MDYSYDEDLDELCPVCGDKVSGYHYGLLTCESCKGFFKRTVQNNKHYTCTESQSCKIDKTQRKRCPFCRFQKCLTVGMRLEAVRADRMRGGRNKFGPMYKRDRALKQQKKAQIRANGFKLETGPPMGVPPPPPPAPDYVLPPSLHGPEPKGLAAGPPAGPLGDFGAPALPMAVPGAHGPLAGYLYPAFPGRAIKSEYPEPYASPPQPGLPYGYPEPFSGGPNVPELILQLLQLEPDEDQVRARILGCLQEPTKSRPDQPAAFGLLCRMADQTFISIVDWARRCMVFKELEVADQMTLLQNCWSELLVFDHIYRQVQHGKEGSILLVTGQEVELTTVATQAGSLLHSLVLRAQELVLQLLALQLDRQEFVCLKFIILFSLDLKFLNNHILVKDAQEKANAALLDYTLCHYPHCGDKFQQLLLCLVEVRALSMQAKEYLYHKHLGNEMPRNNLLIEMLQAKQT

[9] = nonselective StAR promoter luciferase inhibitors – cell-based, luminescence, luciferase reporter, counter-screen for LRH-1 inverse agonist project, dose response (AID 651969); type: functional
[10] = molecular target: T4, ATP-dependent translocase ABCB1 (Homo sapiens, UniProt P08183); test: inhibition of BCRP-mediated JC-1 efflux – Ig-MXP3 cells, flow cytometry, set 2, dose response (AID 504566); type: functional; details: read-out: EC50_MICROM_;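 further: flow cytometry median green fluorescence of retained JC-1 dye; potency of efflux pump inhibition measured as rising substrate retention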
T4 sequence (P08183 whole entry): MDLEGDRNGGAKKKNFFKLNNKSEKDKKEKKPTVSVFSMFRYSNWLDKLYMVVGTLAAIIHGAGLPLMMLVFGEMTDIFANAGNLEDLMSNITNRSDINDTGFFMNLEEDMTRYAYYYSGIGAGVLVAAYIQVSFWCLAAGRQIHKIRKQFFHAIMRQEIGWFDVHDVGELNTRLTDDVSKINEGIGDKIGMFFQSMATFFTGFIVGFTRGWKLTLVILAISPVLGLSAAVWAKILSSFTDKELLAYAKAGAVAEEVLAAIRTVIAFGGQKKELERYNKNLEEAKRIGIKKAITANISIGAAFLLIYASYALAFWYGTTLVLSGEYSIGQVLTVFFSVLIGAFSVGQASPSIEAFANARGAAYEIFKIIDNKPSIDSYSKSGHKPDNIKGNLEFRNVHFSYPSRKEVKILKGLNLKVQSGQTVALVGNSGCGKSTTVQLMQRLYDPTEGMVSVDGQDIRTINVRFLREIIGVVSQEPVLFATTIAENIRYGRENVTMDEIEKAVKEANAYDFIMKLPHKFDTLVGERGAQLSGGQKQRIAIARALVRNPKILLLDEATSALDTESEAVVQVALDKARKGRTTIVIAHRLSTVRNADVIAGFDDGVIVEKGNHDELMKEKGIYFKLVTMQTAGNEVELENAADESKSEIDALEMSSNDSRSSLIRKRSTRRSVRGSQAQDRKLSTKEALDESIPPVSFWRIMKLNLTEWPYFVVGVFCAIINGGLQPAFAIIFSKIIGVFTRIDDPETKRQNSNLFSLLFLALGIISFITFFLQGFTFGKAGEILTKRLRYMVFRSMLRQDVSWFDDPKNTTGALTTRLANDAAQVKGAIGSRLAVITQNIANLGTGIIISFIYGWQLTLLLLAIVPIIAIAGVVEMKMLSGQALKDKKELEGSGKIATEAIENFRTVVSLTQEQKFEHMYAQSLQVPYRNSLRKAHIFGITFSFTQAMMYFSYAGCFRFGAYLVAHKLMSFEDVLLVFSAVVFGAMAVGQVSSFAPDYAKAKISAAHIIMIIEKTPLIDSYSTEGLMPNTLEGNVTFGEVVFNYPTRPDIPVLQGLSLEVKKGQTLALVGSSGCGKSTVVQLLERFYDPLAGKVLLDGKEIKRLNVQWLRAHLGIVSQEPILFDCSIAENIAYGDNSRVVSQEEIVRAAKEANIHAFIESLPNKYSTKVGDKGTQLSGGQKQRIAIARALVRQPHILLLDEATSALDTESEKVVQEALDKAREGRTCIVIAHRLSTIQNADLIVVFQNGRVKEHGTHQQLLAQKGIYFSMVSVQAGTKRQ

[11] = molecular target: T4, ATP-dependent translocase ABCB1; test: P-gp JC-1 efflux blockade concentration-response – Jurkat-DNR cells, flow cytometry, set 2, dose response (AID 504569); type: functional; details: read-out: EC50_MICROM_;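 further: potency of pump inhibitors that raise cellular JC-1 green fluorescence up to the nicardipine level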
[12] = Counterscreen for inhibitors of Trypanosoma brucei methionyl tRNA synthetase (MetRS): Luminescence-based cell-based high throughput dose response assay to identify compounds that are cytotoxic to Jurkat human T lymphocyte cells.; type: functional
Interleukin-8 [13] = molecular target: T5, Interleukin-8 (Homo sapiens, UniProt P10145); test: Dose Response confirmation of uHTS small molecule hits for cystic fibrosis induced NFkb Inhibitors in a TNFa-induced IL8 counterscreen.; type: functional; details: read-out: IC50_Mean
T5 sequence (P10145 whole entry): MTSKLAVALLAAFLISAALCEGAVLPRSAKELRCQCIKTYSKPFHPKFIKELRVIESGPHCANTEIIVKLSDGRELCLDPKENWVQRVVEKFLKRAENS

Interleukin-8 [14] = molecular target: T5, Interleukin-8; test: Dose Response confirmation of uHTS small molecule hits for cystic fibrosis induced NFkb Inhibitors in a PAF-induced IL8 counterscreen.; type: functional; details: read-out: IC50_Mean
[15] = molecular target: T6, Microphthalmia-associated transcription factor (Homo sapiens, UniProt O75030); test: reducers of TRPM1 reporter luminescence, concentration series – cell-based, SK-MEL-5, cherry-picked, set 3, MITF inhibitor project, dose response (AID 493073); type: functional;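 further: SK-MEL-5 melanoma cells with luciferase driven by the MITF target TRPM1 promoter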
T6 sequence (O75030 whole entry): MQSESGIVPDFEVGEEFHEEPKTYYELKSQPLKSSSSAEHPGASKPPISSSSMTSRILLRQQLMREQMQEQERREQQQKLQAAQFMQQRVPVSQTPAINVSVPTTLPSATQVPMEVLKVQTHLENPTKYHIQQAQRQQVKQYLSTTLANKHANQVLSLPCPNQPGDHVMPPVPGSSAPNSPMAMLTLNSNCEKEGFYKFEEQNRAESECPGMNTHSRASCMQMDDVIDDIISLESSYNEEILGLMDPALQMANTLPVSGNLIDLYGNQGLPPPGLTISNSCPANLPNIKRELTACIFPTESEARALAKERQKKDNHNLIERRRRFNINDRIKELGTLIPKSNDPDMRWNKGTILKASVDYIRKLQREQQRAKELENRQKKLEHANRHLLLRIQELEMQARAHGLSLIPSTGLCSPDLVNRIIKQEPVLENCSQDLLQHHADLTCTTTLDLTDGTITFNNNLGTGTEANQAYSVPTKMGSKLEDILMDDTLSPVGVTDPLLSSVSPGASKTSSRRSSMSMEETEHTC

[16] = reduction of Shn3 3'UTR-driven luciferase in osteoblasts – cell-based, Clone20 osteoblasts, firefly luciferase, cherry-picked, dose response (AID 624132); type: functional;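 further: firefly luciferase luminescence from reporter carrying the Shn3 3'UTR in osteoblasts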
[17] = loss of viability in HepG2 cells – cell-based, CellTiter-Glo, cherry-picked, cytotoxicity control for Shn3 inhibitor project, dose response (AID 624134); type: functional
[18] = molecular target: Photoreceptor-specific nuclear receptor (Homo sapiens, UniProt Q9Y5X4); type: functional, cell-based;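 further: CHO-S cells with Gal4-NCOR and VP16-NR2E3 two-hybrid luciferase reporter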
Photoreceptor-specific nuclear receptor, sequence (Q9Y5X4 whole entry, the tested form may be a part): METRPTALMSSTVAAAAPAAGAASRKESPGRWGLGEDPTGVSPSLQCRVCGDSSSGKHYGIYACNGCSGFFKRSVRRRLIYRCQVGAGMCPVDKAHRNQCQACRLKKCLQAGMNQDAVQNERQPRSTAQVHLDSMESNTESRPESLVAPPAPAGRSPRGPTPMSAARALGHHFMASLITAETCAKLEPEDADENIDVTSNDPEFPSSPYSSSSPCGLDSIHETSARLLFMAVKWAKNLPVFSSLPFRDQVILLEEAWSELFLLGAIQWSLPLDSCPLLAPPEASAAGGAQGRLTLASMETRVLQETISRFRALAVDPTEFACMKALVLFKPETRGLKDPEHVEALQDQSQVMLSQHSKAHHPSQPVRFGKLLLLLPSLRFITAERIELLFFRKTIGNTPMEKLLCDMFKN

[19] = molecular target: Diacylglycerol lipase-beta (Mus musculus, UniProt Q91WC9); test: Late stage assay provider results from the probe development effort to identify inhibitors of diacylglycerol lipase, beta (DAGLb): fluorescence-based dose-response biochemical gel-based competitive Activity-Based Protein Profiling (ABPP) inhibition of DAGLb in vitro.; type: functional
Diacylglycerol lipase-beta, sequence (Q91WC9 whole entry): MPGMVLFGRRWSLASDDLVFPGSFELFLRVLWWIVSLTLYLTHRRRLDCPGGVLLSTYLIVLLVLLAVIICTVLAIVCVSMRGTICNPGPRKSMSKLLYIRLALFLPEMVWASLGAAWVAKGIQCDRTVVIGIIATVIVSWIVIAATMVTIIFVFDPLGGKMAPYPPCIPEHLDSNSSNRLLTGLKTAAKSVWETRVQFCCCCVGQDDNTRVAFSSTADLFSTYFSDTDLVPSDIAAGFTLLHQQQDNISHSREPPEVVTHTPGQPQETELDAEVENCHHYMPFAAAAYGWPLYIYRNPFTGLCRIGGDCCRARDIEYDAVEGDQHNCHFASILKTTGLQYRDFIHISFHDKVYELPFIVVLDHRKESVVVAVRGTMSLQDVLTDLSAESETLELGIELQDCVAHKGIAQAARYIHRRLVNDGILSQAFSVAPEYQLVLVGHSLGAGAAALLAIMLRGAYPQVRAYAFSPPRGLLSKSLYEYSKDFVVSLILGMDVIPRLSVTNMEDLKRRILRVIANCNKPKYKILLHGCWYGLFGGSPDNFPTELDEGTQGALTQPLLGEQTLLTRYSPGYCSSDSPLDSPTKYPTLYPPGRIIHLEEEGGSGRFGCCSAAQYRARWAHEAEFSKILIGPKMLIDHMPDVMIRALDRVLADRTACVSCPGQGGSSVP

[20] = molecular target: T7, Apoptotic protease-activating factor 1 (Homo sapiens, UniProt O14727); test: SAR analysis of small molecule Activators of Apaf-1 in a Fluorescent assay.; type: functional; details: read-out: EC50_Mean;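 further: caspase-3 cleavage of fluorogenic Rh110 DEVD substrate downstream of apoptosome activation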
T7 sequence (O14727 whole entry): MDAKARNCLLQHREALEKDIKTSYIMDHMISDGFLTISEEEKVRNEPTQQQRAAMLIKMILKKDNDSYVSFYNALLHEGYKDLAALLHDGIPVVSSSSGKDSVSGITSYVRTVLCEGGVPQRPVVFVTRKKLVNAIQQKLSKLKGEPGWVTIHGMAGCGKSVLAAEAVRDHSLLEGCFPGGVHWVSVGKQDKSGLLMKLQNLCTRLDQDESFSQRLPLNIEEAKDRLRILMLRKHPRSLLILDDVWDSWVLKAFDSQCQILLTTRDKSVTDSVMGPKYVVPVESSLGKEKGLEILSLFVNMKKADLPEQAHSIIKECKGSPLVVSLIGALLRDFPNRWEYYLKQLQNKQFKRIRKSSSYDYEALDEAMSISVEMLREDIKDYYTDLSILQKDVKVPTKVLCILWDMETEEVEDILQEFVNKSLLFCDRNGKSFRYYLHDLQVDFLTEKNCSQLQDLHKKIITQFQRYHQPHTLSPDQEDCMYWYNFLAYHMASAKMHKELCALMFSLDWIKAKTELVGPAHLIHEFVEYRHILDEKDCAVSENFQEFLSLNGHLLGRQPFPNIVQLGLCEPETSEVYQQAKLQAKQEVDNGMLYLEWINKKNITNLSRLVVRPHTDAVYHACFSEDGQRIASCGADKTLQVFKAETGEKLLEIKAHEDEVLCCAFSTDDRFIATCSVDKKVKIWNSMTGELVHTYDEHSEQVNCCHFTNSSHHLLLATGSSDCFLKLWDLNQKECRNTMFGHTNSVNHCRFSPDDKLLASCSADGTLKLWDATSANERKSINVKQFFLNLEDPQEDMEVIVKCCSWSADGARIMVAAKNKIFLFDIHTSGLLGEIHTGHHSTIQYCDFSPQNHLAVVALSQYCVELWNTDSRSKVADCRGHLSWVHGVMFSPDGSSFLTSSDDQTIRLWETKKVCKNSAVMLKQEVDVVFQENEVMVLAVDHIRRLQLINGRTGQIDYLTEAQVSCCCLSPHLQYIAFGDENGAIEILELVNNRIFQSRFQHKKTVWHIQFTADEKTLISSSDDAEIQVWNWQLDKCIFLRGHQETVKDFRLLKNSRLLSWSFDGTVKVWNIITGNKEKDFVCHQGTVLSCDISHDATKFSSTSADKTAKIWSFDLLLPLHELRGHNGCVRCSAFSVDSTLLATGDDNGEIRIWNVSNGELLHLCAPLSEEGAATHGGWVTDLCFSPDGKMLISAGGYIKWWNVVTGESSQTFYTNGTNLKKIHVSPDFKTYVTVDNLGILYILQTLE

IC50 [1]: 8.39 µM (active)
IC50 [2]: 32.4 µM (active)
IC50 [3]: > 100 µM (inactive)
IC50 (Prothrombin): 52.8 µM (active)
IC50 [4]: 238 µM (active)
AC50 [5]: 4.16 µM (active)
Compound: CC1=NN(c2ccccc2)C(=O)C1/C=C1\NC(=S)NC1=O (configuration not stated)

IC50 [6]: 13.1 µM (active)
IC50 [7]: 7.48 µM (active)
Compound: Fc1ccccc1-c1nc(NC2CCCC2)c2ccccc2n1

Compound: O=C(CN1C(=O)NC2(CCCCC2)C1=O)NCCc1c[nH]c2ccccc12
IC50 [8]: 10.3 µM (inactive)
IC50 (Steroidogenic factor 1): 5.36 µM (active)
IC50 [9]: 35.9 µM (inactive)

EC50 [10]: 0.72 µM (active)
EC50 [11]: 2.87 µM (active)
Compound: COc1ccccc1-c1cc2nc(-c3ccccc3)cc(N3CCN(C(=O)c4ccccc4)CC3)n2n1

Compound: COc1ccc(N=C(S)N2CCC(c3nc4cc(Cl)ccc4[nH]3)CC2)c(OC)c1
IC50 [12]: 83.3 µM (inactive)

IC50 (Interleukin-8 [13]): 56.5 µM (inactive)
IC50 (Interleukin-8 [14]): 14.4 µM (inactive)
Compound: c1cc(-c2cnc3cccnn23)c2cccnc2c1

Compound: Cc1cc(C(=O)COc2cccnc2[N+](=O)[O-])c(C)n1-c1ccccc1
AC50 [15]: 1.48 µM (active)
AC50 [16]: 34.8 µM (active)
AC50 [17]: > 70 µM (inactive)
IC50 [18]: 0.517 µM (active)

IC50 [19]: 0.052 µM (active)
Compound: O=C(N1CCCCC1Cc1ccccc1)n1cc(-c2ccc(OC(F)(F)F)cc2)nn1 (configuration not stated)

EC50 [20]: > 100 µM (inactive)
Compound: Cc1ccc(NCC(C)C(=O)O)cc1C (configuration not stated)

Source: ChEMBL document CHEMBL1201862, “PubChem BioAssay data set” (2004)
